Laboratory results reported in ChEMBL document CHEMBL6178016, “Design, Synthesis, and Biological Evaluation of New PDE4 Inhibitors for the Treatment of Pressure Ulcers” (J Med Chem, 2025).
Activity calls are given as the source filed them. No cut-off for these calls is given here.

What was measured:
[1] = target: Dual specificity calcium/calmodulin-dependent 3',5'-cyclic nucleotide phosphodiesterase 1A (Homo sapiens, UniProt P54750); assay: Inhibition of PDE1A (unknown origin)
[2] = Toxicity in male Sprague-Dawley rat assessed as pathological changes in liver by H and E staining based analysis; assay type: tissue-based; settings: in vivo
[3] = system: Rattus norvegicus; assay: Antiinflammatory activity against male Sprague-Dawley rat pressure ulcer model assessed as reduction in IL6 mRNA expression in skin at 1.25% administered as ointment by qRT-PCR analysis; assay type: functional, organism-based
[4] = organism: Rattus norvegicus; assay: Antiinflammatory activity against male Sprague-Dawley rat pressure ulcer model assessed as increase in CREB phosphorylation expression by immunohistochemical staining based analysis; assay type: functional, organism-based
[5] = Acute toxicity in male Kunming mouse assessed as effect on pathological changes in kidney at 500 to 4000 mg/kg measured after 14 days by H and E staining based analysis; assay type: organism-based; settings: in vivo, 336 h, dose 500-4000 mg/kg, time 14 day
[6] = AUC (0 to t) in Sprague-Dawley rat at 10 mg/kg, po; assay type: ADME, organism-based; settings: in vivo
[7] = target: cGMP-inhibited 3',5'-cyclic phosphodiesterase 3A (Homo sapiens, UniProt Q14432); assay: Inhibition of PDE3A (unknown origin)
[8] = Acute toxicity in female Kunming mouse assessed as effect on pathological changes in kidney at 500 to 4000 mg/kg measured after 14 days by H and E staining based analysis; assay type: organism-based; settings: in vivo, 336 h, dose 500-4000 mg/kg, time 14 day
[9] = Acute toxicity in female Kunming mouse assessed as effect on pathological changes in lung at 500 to 4000 mg/kg measured after 14 days by H and E staining based analysis; assay type: organism-based; settings: in vivo, 336 h, dose 500-4000 mg/kg, time 14 day
[10] = system: Rattus norvegicus; assay: Antiinflammatory activity against male Sprague-Dawley rat pressure ulcer model assessed as wound healing rate at 0.625% administration as ointment measured after 7 days (reference value: 70%); assay type: functional; settings: time 7 day
[11] = system: RAW264.7; assay: Cytotoxicity against mouse RAW264.7 cells at 10 uM measured after 24 hrs by CCK-8 method; assay type: functional, cell-based
[12] = target: cGMP-specific 3',5'-cyclic phosphodiesterase (Homo sapiens, UniProt O76074); assay: Inhibition of PDE5A (unknown origin)
[13] = system: Rattus norvegicus; assay: Antiinflammatory activity against male Sprague-Dawley rat pressure ulcer model assessed as decrease in inflammatory cells in dermis at 0.625 to 2.5% administered as ointment by Masson staining based analysis; assay type: functional, organism-based
[14] = system: RAW264.7; assay: Antiinflammatory activity against mouse RAW264.7 cells assessed as inhibition of LPS-induced TNF-alpha release preincubated for 2 hrs followed by LPS stimulation and measured after 4 hrs by RT-PCR analysis; assay type: functional, cell-based
[15] = system: HUVEC; assay: Inhibition of cell migration in HUVEC cells; assay type: functional, cell-based; settings: Homo sapiens, dose 5-20 µM
[16] = system: Enterococcus faecalis; assay: Antibacterial activity against Enterococcus faecalis BNCC296862 assessed as reduction in bacterial colonies growth at 512 ug/ml measured after 24 hrs by agar plate method; assay type: functional, organism-based; settings: dose 512.0 µg/ml
[17] = target: High affinity cAMP-specific and IBMX-insensitive 3',5'-cyclic phosphodiesterase 8A (Homo sapiens, UniProt O60658); assay: Inhibition of PDE8A (unknown origin)
[18] = target: Cone cGMP-specific 3',5'-cyclic phosphodiesterase subunit alpha' (Homo sapiens, UniProt P51160); assay: Inhibition of PDE6C (unknown origin)
Chain of Cone cGMP-specific 3',5'-cyclic phosphodiesterase subunit alpha' (P51160 whole entry): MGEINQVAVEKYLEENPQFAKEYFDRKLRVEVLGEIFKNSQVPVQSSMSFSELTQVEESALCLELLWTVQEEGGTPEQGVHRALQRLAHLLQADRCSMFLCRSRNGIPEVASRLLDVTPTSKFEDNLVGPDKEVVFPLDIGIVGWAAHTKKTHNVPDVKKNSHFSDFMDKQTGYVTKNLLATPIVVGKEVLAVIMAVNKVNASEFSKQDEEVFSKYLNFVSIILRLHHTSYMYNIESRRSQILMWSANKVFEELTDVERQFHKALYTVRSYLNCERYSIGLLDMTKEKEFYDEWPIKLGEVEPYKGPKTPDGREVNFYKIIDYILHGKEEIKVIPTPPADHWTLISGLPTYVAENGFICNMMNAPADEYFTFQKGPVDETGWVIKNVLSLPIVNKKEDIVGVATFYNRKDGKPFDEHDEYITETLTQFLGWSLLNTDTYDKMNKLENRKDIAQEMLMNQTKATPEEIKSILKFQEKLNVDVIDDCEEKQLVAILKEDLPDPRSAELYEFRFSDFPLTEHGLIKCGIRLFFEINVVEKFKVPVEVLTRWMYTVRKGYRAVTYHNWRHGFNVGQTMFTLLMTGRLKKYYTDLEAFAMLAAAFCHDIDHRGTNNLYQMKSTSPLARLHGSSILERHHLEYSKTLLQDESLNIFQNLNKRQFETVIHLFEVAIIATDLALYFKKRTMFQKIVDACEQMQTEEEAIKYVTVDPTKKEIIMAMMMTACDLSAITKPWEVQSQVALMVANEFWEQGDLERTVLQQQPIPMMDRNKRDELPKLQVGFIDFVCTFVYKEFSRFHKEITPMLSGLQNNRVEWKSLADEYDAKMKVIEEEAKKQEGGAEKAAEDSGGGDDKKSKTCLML

[19] = target: Cytochrome P450 2C19 (Homo sapiens, UniProt P33261); assay: Inhibition of human CYP2C19; assay type: ADME
[20] = system: Rattus norvegicus; assay: Antiinflammatory activity against male Sprague-Dawley rat pressure ulcer model assessed as reduction in TNF-alpha mRNA expression in skin at 1.25% administered as ointment by qRT-PCR analysis; assay type: functional, organism-based
[21] = Cmax in Sprague-Dawley rat at 10 mg/kg, po; assay type: ADME, organism-based; settings: in vivo
[22] = C0 in Sprague-Dawley rat at 5 mg/kg, iv; assay type: ADME, organism-based; settings: in vivo
[23] = target: Dual 3',5'-cyclic-AMP and -GMP phosphodiesterase 11A (Homo sapiens, UniProt Q9HCR9); assay: Inhibition of PDE11A (unknown origin)
Chain of Dual 3',5'-cyclic-AMP and -GMP phosphodiesterase 11A (Q9HCR9 whole entry): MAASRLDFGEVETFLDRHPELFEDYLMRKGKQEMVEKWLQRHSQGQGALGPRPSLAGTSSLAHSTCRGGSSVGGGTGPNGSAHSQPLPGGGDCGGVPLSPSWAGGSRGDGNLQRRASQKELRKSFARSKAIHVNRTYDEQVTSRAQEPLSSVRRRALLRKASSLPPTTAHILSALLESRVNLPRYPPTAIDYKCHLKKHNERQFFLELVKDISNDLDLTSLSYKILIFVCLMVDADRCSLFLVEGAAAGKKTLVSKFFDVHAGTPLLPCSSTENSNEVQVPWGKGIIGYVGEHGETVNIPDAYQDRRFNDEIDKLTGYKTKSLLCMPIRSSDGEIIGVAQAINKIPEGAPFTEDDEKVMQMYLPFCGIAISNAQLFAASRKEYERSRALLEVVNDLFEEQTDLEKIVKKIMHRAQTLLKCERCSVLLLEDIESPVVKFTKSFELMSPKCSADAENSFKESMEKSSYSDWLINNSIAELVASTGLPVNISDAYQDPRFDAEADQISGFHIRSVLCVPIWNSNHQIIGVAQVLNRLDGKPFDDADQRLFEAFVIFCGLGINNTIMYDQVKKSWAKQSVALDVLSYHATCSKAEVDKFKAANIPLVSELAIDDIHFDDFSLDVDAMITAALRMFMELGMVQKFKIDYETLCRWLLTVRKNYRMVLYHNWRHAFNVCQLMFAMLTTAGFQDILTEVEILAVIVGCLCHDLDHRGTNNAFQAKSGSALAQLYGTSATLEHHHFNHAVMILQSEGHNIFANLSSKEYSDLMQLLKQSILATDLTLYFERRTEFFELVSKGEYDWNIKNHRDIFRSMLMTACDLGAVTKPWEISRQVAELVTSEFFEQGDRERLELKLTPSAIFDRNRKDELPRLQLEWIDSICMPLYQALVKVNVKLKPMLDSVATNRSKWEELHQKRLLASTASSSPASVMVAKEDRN

[24] = Acute toxicity in male Kunming mouse assessed as effect on pathological changes in heart at 500 to 4000 mg/kg measured after 14 days by H and E staining based analysis; assay type: organism-based; settings: in vivo, 336 h, dose 500-4000 mg/kg, time 14 day
[25] = system: Rattus norvegicus; assay: Antiinflammatory activity against male Sprague-Dawley rat pressure ulcer model assessed as wound healing rate at 2.5% administration as ointment measured after 7 days (reference value: 70%); assay type: functional; settings: time 7 day
[26] = AUC (0 to t) in Sprague-Dawley rat at 5 mg/kg, iv; assay type: ADME, organism-based; settings: in vivo
[27] = Acute toxicity in male Kunming mouse assessed as effect on pathological changes in spleen at 500 to 4000 mg/kg measured after 14 days by H and E staining based analysis; assay type: organism-based; settings: in vivo, 336 h, dose 500-4000 mg/kg, time 14 day
[28] = target: cAMP and cAMP-inhibited cGMP 3',5'-cyclic phosphodiesterase 10A (Homo sapiens, UniProt Q9Y233); assay: Inhibition of PDE10A (unknown origin)
Chain of cAMP and cAMP-inhibited cGMP 3',5'-cyclic phosphodiesterase 10A (Q9Y233 whole entry): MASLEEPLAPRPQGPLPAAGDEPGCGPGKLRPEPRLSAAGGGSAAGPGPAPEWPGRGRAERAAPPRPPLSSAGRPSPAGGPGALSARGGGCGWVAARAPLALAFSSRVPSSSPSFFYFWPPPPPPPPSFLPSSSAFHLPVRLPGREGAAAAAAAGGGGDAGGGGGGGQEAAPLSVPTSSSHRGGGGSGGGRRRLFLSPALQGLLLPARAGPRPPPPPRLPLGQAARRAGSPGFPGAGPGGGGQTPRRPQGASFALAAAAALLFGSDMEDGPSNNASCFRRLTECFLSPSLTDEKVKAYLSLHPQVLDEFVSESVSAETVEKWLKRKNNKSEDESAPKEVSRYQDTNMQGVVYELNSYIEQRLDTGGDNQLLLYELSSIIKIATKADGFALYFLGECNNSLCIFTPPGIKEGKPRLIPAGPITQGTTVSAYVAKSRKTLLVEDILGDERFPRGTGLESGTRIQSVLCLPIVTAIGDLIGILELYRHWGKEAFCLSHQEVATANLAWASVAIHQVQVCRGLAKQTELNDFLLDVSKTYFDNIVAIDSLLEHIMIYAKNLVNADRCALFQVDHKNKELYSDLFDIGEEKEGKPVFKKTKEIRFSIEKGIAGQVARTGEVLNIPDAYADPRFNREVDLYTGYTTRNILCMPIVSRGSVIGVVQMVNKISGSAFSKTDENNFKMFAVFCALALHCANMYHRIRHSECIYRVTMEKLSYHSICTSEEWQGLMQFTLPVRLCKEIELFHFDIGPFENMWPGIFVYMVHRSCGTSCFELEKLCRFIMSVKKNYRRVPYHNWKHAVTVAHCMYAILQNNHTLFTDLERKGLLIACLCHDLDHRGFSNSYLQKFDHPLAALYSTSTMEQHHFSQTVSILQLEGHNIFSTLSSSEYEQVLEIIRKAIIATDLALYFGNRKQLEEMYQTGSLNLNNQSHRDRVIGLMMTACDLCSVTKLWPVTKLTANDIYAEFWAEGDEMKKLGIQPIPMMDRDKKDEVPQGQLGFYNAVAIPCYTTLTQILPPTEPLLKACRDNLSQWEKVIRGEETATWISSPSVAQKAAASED

[29] = Acute toxicity in male Kunming mouse assessed as effect on pathological changes in liver at 500 to 4000 mg/kg measured after 14 days by H and E staining based analysis; assay type: organism-based; settings: in vivo, 336 h, dose 500-4000 mg/kg, time 14 day
[30] = target: 3',5'-cyclic-AMP phosphodiesterase 4D (Homo sapiens, UniProt Q08499); assay: Inhibition of PDE4D (unknown origin) at 1 uM relative to control
Chain of 3',5'-cyclic-AMP phosphodiesterase 4D (Q08499 whole entry): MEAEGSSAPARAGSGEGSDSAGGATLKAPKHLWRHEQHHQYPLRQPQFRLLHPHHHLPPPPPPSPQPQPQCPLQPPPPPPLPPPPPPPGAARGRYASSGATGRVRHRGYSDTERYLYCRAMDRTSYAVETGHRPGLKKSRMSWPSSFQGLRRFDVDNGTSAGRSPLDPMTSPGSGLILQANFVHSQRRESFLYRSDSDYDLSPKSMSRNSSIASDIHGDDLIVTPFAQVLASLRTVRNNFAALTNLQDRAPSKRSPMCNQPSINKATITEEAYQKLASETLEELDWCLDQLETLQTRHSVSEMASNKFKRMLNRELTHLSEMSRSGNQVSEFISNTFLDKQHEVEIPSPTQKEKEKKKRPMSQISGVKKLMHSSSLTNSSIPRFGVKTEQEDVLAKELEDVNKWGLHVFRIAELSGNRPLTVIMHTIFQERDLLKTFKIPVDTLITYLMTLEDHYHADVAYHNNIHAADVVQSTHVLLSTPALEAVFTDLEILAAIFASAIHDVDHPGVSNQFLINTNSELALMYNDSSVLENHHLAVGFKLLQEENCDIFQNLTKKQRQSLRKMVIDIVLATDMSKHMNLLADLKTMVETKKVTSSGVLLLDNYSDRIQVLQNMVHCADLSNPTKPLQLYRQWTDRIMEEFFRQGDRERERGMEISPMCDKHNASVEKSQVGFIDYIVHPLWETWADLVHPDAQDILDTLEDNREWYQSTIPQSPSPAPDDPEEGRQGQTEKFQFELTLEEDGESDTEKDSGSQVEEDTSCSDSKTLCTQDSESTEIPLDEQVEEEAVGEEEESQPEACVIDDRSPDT

[31] = system: Enterococcus faecium; assay: Antibacterial activity against Enterococcus faecium BNCC358275 assessed as reduction in bacterial colonies growth at 512 ug/ml measured after 24 hrs by agar plate method; assay type: functional, organism-based; settings: dose 512.0 µg/ml
[32] = Acute toxicity in female Kunming mouse assessed as effect on pathological changes in heart at 500 to 4000 mg/kg measured after 14 days by H and E staining based analysis; assay type: organism-based; settings: in vivo, 336 h, dose 500-4000 mg/kg, time 14 day
[33] = target: Cytochrome P450 3A4 (Homo sapiens, UniProt P08684); assay: Inhibition of human CYP3A4; assay type: ADME
Chain of Cytochrome P450 3A4 (P08684 whole entry): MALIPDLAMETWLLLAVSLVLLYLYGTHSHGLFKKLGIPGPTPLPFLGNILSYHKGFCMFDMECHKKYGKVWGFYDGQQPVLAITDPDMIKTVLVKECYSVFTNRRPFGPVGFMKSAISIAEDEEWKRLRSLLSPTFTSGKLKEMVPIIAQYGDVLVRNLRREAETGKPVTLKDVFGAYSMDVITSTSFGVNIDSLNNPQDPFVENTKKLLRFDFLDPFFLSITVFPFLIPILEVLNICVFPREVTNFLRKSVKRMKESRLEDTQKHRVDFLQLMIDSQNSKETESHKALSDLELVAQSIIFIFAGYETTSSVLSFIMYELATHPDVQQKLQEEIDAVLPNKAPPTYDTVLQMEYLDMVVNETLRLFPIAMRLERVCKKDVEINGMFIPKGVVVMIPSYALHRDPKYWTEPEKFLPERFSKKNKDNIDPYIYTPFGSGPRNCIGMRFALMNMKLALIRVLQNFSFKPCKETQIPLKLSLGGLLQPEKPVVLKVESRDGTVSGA

[34] = system: RAW264.7; assay: Antiinflammatory activity against LPS induced mouse RAW264.7 cells assessed as increase in CREB phosphorylation expression at 5 to 20 uM by Western blot analysis; assay type: functional, cell-based; settings: dose 5-20 µM
[35] = system: Rattus norvegicus; assay: Antiinflammatory activity against male Sprague-Dawley rat pressure ulcer model assessed as appearance of orderly arranged cells at 0.625 to 2.5% administered as ointment by Masson staining based analysis; assay type: functional, organism-based
[36] = system: Rattus norvegicus; assay: Antiinflammatory activity against male Sprague-Dawley rat pressure ulcer model assessed as increase in number of fibroblasts at 0.625 to 2.5% administered as ointment by Masson staining based analysis; assay type: functional, organism-based
[37] = Half life in Sprague-Dawley rat at 10 mg/kg, po; assay type: ADME, organism-based; settings: in vivo
[38] = system: Rattus norvegicus; assay: Antiinflammatory activity against male Sprague-Dawley rat pressure ulcer model assessed as appearance of thinner epidermal layer at 0.625 to 2.5% administered as ointment by H and E staining based analysis; assay type: functional, organism-based
[39] = Apparent volume of distribution in Sprague-Dawley rat at 5 mg/kg, iv; assay type: ADME, organism-based; settings: in vivo, read-out: Vz
[40] = Toxicity in male Sprague-Dawley rat assessed as pathological changes in kidney by H and E staining based analysis; assay type: tissue-based; settings: in vivo
[41] = system: Rattus norvegicus; assay: Antiinflammatory activity against male Sprague-Dawley rat pressure ulcer model assessed as increase in number of fibroblasts at 0.625 to 2.5% administered as ointment by H and E staining based analysis; assay type: functional, organism-based

Chain of Dual specificity calcium/calmodulin-dependent 3',5'-cyclic nucleotide phosphodiesterase 1A (P54750 whole entry): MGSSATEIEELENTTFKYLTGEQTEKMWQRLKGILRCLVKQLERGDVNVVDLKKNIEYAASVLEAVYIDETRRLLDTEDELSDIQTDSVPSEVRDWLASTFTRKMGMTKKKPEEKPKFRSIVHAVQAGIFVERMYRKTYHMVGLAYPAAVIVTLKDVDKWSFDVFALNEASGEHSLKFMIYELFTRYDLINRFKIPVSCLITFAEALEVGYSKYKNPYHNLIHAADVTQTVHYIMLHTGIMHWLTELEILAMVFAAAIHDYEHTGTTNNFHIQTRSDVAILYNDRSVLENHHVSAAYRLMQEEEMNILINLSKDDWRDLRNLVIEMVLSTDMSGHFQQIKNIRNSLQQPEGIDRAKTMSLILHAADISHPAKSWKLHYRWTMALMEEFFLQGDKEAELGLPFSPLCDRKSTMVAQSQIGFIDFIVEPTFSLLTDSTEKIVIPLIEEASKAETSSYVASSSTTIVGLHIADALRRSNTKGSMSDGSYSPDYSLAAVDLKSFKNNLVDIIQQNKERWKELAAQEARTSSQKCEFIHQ

In the case of `Cn1c(=O)c2c(ncn2CCC(=O)NNC(=O)c2cc3nccc(-c4ccc(OC(F)F)c(OCC5CC5)c4)n3n2)n(C)c1=O`, the IC50 [1] is reported as > 50 µM, the Activity [2] is reported as “Non-toxic” and the Activity [3] is reported as “Active”. The Activity [4] was “Active”, the Activity [5] was “Non-toxic” and the AUC(0-t) [6] was 25.6 ng·h/mL. The IC50 [7] was > 50 µM, the Activity [8] was “Non-toxic” and the Activity [9] was “Non-toxic”. The Activity [10] was 78%, the Activity [11] was “inactive” and the IC50 [12] was > 50 µM. For the same molecule, the Activity [13] was “Active”, the IC50 [14] was 13.3 µM and the inhibition [15] was “Dose-dependent-effect”. For the same molecule, the Activity [16] was “Active”, the IC50 [17] was 1.72 µM and the IC50 [18] was > 50 µM. For the same molecule, the IC50 [19] was > 50 µM, the Activity [20] was “Active” and the Cmax [21] was 14.4 ng/mL. The C0 [22] was 1140 ng/mL, the IC50 [23] was > 50 µM and the Activity [24] was “Non-toxic”. The Activity [25] was 81%, the AUC(0-t) [26] was 235 ng·h/mL and the Activity [27] was “Non-toxic”. For the same molecule, the IC50 [28] was 1.12 µM, the Activity [29] was “Non-toxic” and the inhibition [30] was 95.8%. The Activity [31] was “Active”, the Activity [32] was “Non-toxic” and the IC50 [33] was > 50 µM. The Activity [34] was “Active”, the Activity [35] was “Active” and the Activity [36] was “Active”. For the same molecule, the half-life [37] was 1.4 h, the Activity [38] was “Active” and the Vd [39] was 8.79 L/kg. For the same molecule, the Activity [40] was “Non-toxic” and the Activity [41] was “Active”.
